Columns and labels:
[1] = molecular target: Glycogen synthase kinase-3 beta (Homo sapiens, UniProt P49841)
Description: Inhibition of recombinant GST-tagged GSK-3beta (unknown origin) expressed in Escherichia coli strain BL21-Codon Plus (DE3) using Ser/Thr 9 peptide substrate by Z'-LYTE kinase assay

[2] = Neuroprotective activity against glutamate-induced neurotoxicity in Sprague-Dawley rat primary cerebellar granule neurons assessed as cell viability at 10 uM pre-incubated for 24 hrs before glutamate stimulation for 24 hrs by MTT assay; type: functional; details: Neuron, read-out: Activity

Glycogen synthase kinase-3 beta, sequence (P49841 whole entry): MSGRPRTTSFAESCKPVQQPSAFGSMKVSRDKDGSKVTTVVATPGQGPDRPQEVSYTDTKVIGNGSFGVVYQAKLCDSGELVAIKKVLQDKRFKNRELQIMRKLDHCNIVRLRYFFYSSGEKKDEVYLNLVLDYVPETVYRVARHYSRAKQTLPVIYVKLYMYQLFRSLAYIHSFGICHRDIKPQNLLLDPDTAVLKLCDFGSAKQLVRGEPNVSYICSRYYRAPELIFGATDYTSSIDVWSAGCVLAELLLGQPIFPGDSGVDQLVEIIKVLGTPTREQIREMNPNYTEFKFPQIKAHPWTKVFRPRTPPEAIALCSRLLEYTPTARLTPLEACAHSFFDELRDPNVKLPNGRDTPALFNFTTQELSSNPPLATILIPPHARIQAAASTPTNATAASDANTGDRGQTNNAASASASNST

Row | SMILES | IC50 [1] | viability at 10 µM [2]
1 | CCCCn1cc(C2=C(c3nnc4ccccn34)C(=O)NC2=O)c2ccccc21 | 0.0697 µM | 93.2%
2 | Cc1cccc2c(C3=C(c4nnc5ccccn45)C(=O)NC3=O)cn(C)c12 | 0.105 µM | 94.3%
3 | COc1ccc2c(c1)c(C1=C(c3nnc4ccccn34)C(=O)NC1=O)cn2C | 0.942 µM | 
4 | Cn1cc(C2=C(c3nnc4ccccn34)C(=O)NC2=O)c2cc(Cl)ccc21 | 0.0741 µM | 95.1%
5 | Cn1cc(C2=C(c3nnc4ccccn34)C(=O)NC2=O)c2ccccc21 | 0.154 µM | 83.6%
6 | CC(C)n1cc(C2=C(c3nnc4ccccn34)C(=O)NC2=O)c2ccccc21 | 0.013 µM | 94.4%
7 | Cn1cc(C2=C(c3nnc4ccccn34)C(=O)NC2=O)c2ccc(Cl)cc21 | 0.159 µM | 55.7%
8 | Cn1cc(C2=C(c3nnc4ccccn34)C(=O)NC2=O)c2ccc(F)cc21 | 0.204 µM | 59.7%
9 | Cn1cc(C2=C(c3nnc4ccccn34)C(=O)NC2=O)c2cc(Br)ccc21 | 0.0635 µM | 93.5%

The remaining compounds from weak to strong by IC50 [1], led by results:

Row | IC50 [1] | SMILES | viability at 10 µM [2]
10 | 0.477 µM | O=C1NC(=O)C(c2nnc3ccccn23)=C1c1c[nH]c2ccccc12 | 
11 | 0.327 µM | Cn1cc(C2=C(c3nnc4ccccn34)C(=O)NC2=O)c2ccc(Br)cc21 | 
12 | 0.2 µM | O=C1NC(=O)C(c2nnc3ccccn23)=C1c1cn(CCCN2CCOCC2)c2ccccc12 | 
13 | 0.188 µM | Cn1cc(C2=C(c3nnc4ccccn34)C(=O)NC2=O)c2cc(F)ccc21 | 71.6%
14 | 0.121 µM | O=C1NC(=O)C(c2nnc3ccccn23)=C1c1cn(CCCO)c2ccccc12 | 
15 | 0.0736 µM | C=CCn1cc(C2=C(c3nnc4ccccn34)C(=O)NC2=O)c2ccccc21 | 
16 | 0.036 µM | O=C1NC(=O)C(c2nnc3ccccn23)=C1c1cn(CCCn2ccnc2)c2ccccc12 | 60.6%

Reference: ChEMBL document CHEMBL3397021, “Synthesis and biological evaluation of 3-([1,2,4]triazolo[4,3-a]pyridin-3-yl)-4-(indol-3-yl)-maleimides as potent, selective GSK-3β inhibitors and neuroprotective agents” (Bioorg Med Chem, 2015)
